Results: publication PMC5762315, “Inhibition of polo-like kinase 4 (PLK4): a new therapeutic option for rhabdoid tumors and pediatric medulloblastoma” (Oncotarget, 2017)
“And” between values parts separate entries of the source, which are not always exact repeats. Equal entries are not always repeated.

How the values were obtained:
Test in all cases: biochemical
Assay type in all cases: biochemical
various kinases [1] = biological target: various kinases (Homo sapiens, UniProt P05129); conditions: kinase PRKCG (PKC gamma); ZLYTE
various kinases [2] = biological target: T1, various kinases (Homo sapiens, UniProt Q13043); conditions: kinase STK4 (MST1); ZLYTE
T1 sequence (Q13043 1-487): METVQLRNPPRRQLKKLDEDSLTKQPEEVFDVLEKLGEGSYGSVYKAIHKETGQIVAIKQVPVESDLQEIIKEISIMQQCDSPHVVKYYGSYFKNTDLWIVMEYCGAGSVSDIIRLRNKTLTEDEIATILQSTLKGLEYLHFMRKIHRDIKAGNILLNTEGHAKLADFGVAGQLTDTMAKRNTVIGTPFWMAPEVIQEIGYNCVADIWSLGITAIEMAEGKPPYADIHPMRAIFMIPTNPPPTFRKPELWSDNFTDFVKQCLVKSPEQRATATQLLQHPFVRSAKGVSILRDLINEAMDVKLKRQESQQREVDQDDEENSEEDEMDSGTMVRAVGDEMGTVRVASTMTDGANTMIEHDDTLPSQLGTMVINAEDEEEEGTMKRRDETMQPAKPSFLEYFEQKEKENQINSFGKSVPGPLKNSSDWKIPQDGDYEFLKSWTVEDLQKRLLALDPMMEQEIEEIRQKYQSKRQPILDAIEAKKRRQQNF

various kinases [3] = biological target: T2, various kinases (Homo sapiens, UniProt P51817); conditions: kinase PRKX; ZLYTE
T2 sequence (P51817 1-358): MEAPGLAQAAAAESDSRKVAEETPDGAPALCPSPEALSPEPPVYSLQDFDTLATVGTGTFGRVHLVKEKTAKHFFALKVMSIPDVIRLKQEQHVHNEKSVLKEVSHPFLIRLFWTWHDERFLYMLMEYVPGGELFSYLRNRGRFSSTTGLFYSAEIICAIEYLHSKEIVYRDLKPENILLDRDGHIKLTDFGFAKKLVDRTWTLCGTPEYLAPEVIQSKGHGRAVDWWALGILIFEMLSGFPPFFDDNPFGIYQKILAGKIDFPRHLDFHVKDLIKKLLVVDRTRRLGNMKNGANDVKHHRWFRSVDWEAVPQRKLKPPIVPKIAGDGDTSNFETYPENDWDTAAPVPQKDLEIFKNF

various kinases [4] = biological target: T3, various kinases (Homo sapiens, UniProt Q06418); conditions: kinase TYRO3 (RSE); ZLYTE
T3 sequence (Q06418 41-890): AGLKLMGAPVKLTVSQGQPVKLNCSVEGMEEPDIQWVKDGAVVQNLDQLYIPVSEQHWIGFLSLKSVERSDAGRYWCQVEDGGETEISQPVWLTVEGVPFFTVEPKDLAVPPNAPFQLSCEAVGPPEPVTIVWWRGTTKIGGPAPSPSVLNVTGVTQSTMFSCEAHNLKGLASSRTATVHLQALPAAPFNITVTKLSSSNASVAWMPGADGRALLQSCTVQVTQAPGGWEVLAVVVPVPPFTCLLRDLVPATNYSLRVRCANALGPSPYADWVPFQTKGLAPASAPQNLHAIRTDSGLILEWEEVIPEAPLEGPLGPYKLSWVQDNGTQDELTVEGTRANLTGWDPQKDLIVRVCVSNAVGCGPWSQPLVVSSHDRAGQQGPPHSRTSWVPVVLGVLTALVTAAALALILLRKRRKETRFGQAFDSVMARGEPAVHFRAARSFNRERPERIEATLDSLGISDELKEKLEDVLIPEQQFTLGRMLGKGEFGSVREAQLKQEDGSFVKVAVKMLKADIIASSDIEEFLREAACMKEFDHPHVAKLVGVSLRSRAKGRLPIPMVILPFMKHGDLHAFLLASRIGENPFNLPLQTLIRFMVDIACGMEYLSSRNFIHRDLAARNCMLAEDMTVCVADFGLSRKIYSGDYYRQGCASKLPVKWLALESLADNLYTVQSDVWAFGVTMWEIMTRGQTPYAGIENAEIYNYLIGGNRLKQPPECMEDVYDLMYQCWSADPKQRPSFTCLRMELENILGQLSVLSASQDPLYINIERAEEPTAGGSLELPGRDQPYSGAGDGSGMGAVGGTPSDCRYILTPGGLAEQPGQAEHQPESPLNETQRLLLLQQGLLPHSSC

various kinases [5] = biological target: various kinases (Homo sapiens, UniProt P08581, Y1235D); conditions: MET (cMet) Y1235D
various kinases (Homo sapiens, UniProt P08581, Y1235D), sequence (P08581 25-1390 Y1235D): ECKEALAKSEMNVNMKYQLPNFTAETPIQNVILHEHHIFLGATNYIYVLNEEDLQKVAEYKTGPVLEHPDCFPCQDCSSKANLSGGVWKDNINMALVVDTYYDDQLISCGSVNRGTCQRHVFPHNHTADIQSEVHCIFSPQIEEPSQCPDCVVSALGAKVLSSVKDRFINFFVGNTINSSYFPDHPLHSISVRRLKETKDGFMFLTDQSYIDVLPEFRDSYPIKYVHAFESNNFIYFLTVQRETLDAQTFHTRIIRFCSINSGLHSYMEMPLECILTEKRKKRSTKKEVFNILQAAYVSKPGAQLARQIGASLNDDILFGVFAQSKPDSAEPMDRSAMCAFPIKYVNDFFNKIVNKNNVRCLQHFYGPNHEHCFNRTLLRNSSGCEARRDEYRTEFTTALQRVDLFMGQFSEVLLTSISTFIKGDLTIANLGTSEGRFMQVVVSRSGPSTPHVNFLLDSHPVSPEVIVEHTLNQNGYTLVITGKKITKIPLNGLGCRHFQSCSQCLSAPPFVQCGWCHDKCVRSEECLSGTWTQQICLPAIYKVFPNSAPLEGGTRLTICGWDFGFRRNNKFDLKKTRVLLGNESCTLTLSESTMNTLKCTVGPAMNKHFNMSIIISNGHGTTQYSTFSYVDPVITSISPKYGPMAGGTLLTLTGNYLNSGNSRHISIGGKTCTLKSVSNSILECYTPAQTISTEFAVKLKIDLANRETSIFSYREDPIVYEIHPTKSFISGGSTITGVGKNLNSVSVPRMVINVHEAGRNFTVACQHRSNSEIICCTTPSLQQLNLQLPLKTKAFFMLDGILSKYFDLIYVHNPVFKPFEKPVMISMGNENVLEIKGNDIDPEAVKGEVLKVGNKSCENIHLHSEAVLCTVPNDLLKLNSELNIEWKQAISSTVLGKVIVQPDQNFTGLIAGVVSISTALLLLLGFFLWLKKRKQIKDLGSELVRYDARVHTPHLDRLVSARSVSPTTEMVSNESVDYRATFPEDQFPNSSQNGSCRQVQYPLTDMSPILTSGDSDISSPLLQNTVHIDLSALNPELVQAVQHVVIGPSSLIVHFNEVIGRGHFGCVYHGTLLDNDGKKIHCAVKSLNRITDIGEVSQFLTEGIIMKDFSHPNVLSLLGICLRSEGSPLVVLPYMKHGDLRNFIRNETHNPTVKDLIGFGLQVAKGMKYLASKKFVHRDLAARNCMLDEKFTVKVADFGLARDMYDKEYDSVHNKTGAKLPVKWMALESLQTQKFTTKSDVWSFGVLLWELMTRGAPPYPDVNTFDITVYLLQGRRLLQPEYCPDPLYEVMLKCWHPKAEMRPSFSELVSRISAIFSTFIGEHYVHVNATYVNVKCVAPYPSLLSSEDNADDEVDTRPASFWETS

various kinases [6] = biological target: T4, various kinases (Homo sapiens, UniProt O94806); conditions: kinase PRKCN (PKD3); ZLYTE
T4 sequence (O94806 1-890): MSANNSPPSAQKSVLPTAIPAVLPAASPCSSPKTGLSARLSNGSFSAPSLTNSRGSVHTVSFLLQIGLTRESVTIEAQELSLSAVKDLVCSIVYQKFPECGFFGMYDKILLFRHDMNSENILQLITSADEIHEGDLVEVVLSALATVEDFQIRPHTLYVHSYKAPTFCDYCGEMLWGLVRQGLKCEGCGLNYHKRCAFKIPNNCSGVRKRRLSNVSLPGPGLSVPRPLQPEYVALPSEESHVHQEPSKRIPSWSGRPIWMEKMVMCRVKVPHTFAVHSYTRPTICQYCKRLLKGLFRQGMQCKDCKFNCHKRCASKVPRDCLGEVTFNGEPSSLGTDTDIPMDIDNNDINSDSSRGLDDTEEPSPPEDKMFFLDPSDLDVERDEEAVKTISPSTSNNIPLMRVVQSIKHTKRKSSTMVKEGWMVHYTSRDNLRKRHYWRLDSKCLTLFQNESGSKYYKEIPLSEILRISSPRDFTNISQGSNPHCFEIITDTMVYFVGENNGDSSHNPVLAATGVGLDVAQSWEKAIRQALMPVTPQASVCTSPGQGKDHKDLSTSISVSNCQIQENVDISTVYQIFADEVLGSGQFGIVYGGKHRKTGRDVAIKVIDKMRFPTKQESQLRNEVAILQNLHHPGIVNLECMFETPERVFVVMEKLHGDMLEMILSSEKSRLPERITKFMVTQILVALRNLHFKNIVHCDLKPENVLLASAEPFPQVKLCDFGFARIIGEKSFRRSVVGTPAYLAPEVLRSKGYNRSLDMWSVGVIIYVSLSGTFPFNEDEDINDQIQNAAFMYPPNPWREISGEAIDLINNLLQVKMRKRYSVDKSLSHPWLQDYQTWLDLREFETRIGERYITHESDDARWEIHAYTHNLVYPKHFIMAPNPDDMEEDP
Throughout, for % Inhibition Average: test concentration or dose not given here.
Throughout, for % Inhibition Duplicate #1: test concentration or dose not given here.
Throughout, for % Inhibition Duplicate #2: test concentration or dose not given here.

## COc1ccc2c(c1)[C@]1(C[C@H]1c1ccc3c(/C=C/c4ccc(CN5C[C@@H](C)O[C@@H](C)C5)cc4)n[nH]c3c1)C(=O)N2 [CFI-400945]
Various kinases [1]
  % Inhibition Average: -5%
  % Inhibition Duplicate #1: -13%
  % Inhibition Duplicate #2: 3%
Various kinases [2]
  % Inhibition Average: 23%
  % Inhibition Duplicate #1: 22%
  % Inhibition Duplicate #2: 24%
Various kinases [3]
  % Inhibition Average: 5%
  % Inhibition Duplicate #1: 6%
  % Inhibition Duplicate #2: 4%
Various kinases [4]
  % Inhibition Average: 10%
  % Inhibition Duplicate #1: 10%
  % Inhibition Duplicate #2: 11%
Various kinases [5]
  % Inhibition: 5% and 6%
Various kinases [6]
  % Inhibition Average: 4%
  % Inhibition Duplicate #1: 3%
  % Inhibition Duplicate #2: 4%
